Source: patent publication US20240124412A1, “IKAROS ZINC FINGER FAMILY DEGRADERS AND USES THEREOF” (Gilead Sciences, Inc., priority 2021, published 2024)

How the values were obtained:
IKZF1 = target: T1, IKZF1 (Homo sapiens, UniProt Q13422+Q96SW2); assay: HiBiT protein tagging assay, in vitro IKZF1 degradation (HEK293); format: cell-based; conditions: HEK293, 18-24 hr incubation, normalized to DMSO control; for Dmax: read-out: IKZF1 Dmax (maximum degradation at the highest concentration tested); for DC50: read-out: IKZF1 EC50
T1 construct: expressed in transfected cells
In short: (§1)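 Flp-In T-REx HEK293 pools stably expressing C-terminal HiBiT-tagged IKZF1 or IKZF2 were induced overnight with 1 μg/ml doxycycline. Cells were then treated with serially diluted compound for 18-24 hr at 37 °C and read by Nano-Glo lytic luminescence. Data were normalized to 0.5% DMSO as POC; EC50 and Dmax (maximum degradation at highest concentration tested) reported.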

IKZF2 = target: T2, IKZF2 (Homo sapiens, UniProt Q96SW2+Q9UKS7); assay: HiBiT protein tagging assay, in vitro IKZF2 degradation (HEK293); format: cell-based; conditions: HEK293, 18-24 hr incubation, normalized to DMSO control; for Dmax: HEK293, HiBiT assay, read-out: IKZF2 Dmax (maximum degradation at the highest concentration tested); for DC50: HiBiT assay, read-out: IKZF2 EC50
T2 construct: expressed in transfected cells
In short: as §1

T2 sequence (Q9UKS7 1-500 isoform Q9UKS7-2): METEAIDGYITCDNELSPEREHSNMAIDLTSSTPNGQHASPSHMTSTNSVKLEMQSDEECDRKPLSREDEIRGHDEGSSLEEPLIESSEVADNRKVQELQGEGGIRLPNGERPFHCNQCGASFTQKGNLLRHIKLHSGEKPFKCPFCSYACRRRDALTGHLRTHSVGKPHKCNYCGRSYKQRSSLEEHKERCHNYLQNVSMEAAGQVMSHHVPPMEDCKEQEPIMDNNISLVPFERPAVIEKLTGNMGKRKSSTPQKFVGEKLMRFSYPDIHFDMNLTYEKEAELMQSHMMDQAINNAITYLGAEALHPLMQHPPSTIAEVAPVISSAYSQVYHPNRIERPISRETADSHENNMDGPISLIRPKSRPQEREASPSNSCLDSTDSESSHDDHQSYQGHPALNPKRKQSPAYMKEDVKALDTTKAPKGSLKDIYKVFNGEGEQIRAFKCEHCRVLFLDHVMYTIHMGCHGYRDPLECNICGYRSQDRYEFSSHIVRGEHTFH
T2 sequence (Q96SW2 whole entry): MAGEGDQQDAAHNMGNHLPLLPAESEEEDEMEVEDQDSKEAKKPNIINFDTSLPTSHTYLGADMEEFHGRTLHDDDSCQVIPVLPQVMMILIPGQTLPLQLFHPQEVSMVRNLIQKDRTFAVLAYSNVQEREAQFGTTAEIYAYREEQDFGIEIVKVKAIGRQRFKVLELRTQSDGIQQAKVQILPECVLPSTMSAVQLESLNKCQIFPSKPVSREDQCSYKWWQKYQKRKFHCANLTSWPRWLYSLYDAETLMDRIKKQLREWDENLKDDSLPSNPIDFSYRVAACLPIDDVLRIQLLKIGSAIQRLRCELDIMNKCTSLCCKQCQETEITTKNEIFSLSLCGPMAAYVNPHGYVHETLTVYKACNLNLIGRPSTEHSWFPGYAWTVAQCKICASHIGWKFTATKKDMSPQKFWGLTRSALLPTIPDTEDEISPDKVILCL
T2 sequence (Q16531 whole entry partner): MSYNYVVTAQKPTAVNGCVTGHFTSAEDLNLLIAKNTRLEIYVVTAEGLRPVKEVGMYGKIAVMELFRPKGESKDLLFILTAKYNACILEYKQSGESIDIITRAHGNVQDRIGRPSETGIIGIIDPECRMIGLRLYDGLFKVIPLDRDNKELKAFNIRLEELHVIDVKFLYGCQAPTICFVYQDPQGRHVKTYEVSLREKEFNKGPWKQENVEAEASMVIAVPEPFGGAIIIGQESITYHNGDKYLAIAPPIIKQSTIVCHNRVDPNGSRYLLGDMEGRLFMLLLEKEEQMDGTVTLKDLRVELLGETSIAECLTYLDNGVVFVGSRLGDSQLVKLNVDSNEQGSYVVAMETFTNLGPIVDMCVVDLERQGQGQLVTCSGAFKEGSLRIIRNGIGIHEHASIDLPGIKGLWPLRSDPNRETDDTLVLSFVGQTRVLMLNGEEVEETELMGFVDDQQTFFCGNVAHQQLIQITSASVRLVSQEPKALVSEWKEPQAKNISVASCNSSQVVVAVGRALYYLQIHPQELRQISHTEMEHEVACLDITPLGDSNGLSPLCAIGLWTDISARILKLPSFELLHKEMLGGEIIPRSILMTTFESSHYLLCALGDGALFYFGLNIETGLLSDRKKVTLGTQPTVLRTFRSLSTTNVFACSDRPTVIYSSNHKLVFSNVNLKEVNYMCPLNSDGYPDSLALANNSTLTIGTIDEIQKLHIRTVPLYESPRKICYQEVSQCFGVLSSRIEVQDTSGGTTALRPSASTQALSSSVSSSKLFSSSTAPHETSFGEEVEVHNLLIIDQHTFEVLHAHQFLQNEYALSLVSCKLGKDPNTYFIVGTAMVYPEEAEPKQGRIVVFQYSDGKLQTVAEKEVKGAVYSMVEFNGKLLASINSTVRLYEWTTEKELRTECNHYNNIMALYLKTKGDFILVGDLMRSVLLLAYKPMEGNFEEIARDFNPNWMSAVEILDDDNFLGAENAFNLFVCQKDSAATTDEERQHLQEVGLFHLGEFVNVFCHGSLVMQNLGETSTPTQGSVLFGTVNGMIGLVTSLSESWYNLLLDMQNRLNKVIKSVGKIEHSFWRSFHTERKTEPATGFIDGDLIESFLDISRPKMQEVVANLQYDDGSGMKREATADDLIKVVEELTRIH
T1 sequence (Q13422 whole entry): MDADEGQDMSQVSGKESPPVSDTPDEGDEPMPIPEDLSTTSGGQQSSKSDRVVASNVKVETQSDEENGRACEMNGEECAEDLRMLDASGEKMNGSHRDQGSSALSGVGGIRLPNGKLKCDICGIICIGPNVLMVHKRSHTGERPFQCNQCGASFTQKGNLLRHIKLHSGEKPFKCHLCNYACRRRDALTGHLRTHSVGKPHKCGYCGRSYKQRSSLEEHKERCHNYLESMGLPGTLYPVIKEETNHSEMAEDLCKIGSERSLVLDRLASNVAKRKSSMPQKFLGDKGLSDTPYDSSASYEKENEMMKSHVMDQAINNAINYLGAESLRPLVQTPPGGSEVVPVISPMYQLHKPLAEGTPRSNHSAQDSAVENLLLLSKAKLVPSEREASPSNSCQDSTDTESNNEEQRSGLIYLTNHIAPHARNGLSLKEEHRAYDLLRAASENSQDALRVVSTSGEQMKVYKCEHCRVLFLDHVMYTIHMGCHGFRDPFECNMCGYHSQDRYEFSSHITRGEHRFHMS
T1 sequence (Q96SW2 whole entry): as the sequence (Q96SW2 whole entry) above
T1 sequence (Q16531 whole entry partner): as the sequence (Q16531 whole entry partner) above

Compound	Dmax (IKZF1)	DC50 (IKZF1)	Dmax (IKZF2)	DC50 (IKZF2)
O=C1CCC(N2Cc3cc(CNC4CCc5cccnc5C4)ccc3C2=O)C(=O)N1 (centres unmarked) [Example 70, 3-(1-oxo-5-(((5,6,7,8-tetrahydroquinolin-7-yl)amino)methyl)isoindolin-2-yl)piperidine-2,6-dione]	42%	89 nM	67%	303 nM
C[C@@H]1[C@H]2C[C@@H](C[C@H]1NCc1ccc3c(c1)CN(C1CCC(=O)NC1=O)C3=O)C2(C)C (some centres unmarked) [Example 139]	–	> 1000 nM	26%	109 nM
O=C1CCC(N2Cc3cc(CNC4Cc5ccccc5N(Cc5ccccc5)C4)ccc3C2=O)C(=O)N1 (centres unmarked) [Example 25, 3-(5-(((1-benzyl-1,2,3,4-tetrahydroquinolin-3-yl)amino)methyl)-1-oxoisoindolin-2-yl)piperidine-2,6-dione]	38%	84 nM	39%	1800 nM
C[C@@H]1CCCC[C@@H]1NCc1ccc2c(c1)CN(C1CCC(=O)NC1=O)C2=O (some centres unmarked) [Example 46]	36%	275 nM	76%	141 nM
O=C1CCC(N2Cc3cc(CNC4CC5CNC4C5)ccc3C2=O)C(=O)N1 (stereo not drawn) [Example 98, 3-(5-((((1,4,6-cis)-2-azabicyclo[2.2.1]heptan-6-yl)amino)methyl)-1-oxoisoindolin-2-yl)piperidine-2,6-dione]	22%	1500 nM	39%	1800 nM
CC[C@H]1CCCC[C@H]1NCc1ccc2c(c1)CN(C1CCC(=O)NC1=O)C2=O (some centres unmarked) [Example 148]	38%	119 nM	43%	177 nM
C[C@@H]1[C@@H](NCc2ccc3c(c2)CN(C2CCC(=O)NC2=O)C3=O)C[C@H]2C[C@@H]1C2(C)C (some centres unmarked) [Example 134]	–	> 10000 nM	89%	111 nM
O=C1CCC(N2Cc3cc(CN[C@@H]4CCC[C@H](O)C4)ccc3C2=O)C(=O)N1 (some centres unmarked) [Example 82]	–	> 10000 nM	71%	1300 nM
C[C@H]1CCCC[C@@H]1NCc1ccc2c(c1)CN(C1CCC(=O)NC1=O)C2=O (some centres unmarked) [Example 102]	23%	164 nM	69%	220 nM
O=C1CCC(N2Cc3cc(CNC4CCC(Oc5ccccc5)CC4)ccc3C2=O)C(=O)N1 (centres unmarked) [Example 104]	82%	23 nM	72%	42 nM
CCN1CCC(NCc2ccc3c(c2)CN(C2CCC(=O)NC2=O)C3=O)CC1 (centres unmarked) [Example 48, 3-(5-(((1-Ethylpiperidin-4-yl)amino)methyl)-1-oxoisoindolin-2-yl)piperidine-2,6-dione]	25%	655 nM	32%	2800 nM
O=C1CCC(N2Cc3cc(CN[C@H](CO)c4ccccc4)ccc3C2=O)C(=O)N1 (some centres unmarked) [Example 52]	–	> 10000 nM	22%	472 nM
O=C1CCC(N2Cc3cc(CNC4CCN(c5ccncc5)CC4)ccc3C2=O)C(=O)N1 (centres unmarked) [Example 37, 3-(1-oxo-5-(((1-(pyridin-4-yl)piperidin-4-yl)amino)methyl)isoindolin-2-yl)piperidine-2,6-dione]	56%	667 nM	76%	1000 nM
O=C1CCC(N2Cc3cc(CNCCCO)ccc3C2=O)C(=O)N1 (centres unmarked) [Example 55]	36%	394 nM	20%	1300 nM

Second part, the molecule after the results:

Dmax (IKZF1)	DC50 (IKZF1)	Dmax (IKZF2)	DC50 (IKZF2)	Compound
97%	2 nM	97%	11 nM	O=C1CCC(N2Cc3cc(CN[C@@H]4CCCN(Cc5cccc(Cl)c5)C4)ccc3C2=O)C(=O)N1 (stereo partly drawn) [Example 99, 3-(5-((((R)-1-(3-chlorobenzyl)piperidin-3-yl)amino)methyl)-1-oxoisoindolin-2-yl)piperidine-2,6-dione]
26%	131 nM	55%	143 nM	O=C1CCC(N2Cc3cc(CNC4CCCC4)ccc3C2=O)C(=O)N1 (centres unmarked) [Example 8]
58%	102 nM	20%	665 nM	O=C1CCC(N2Cc3cc(CN[C@@H]4CCCN(CCc5ccccc5)C4)ccc3C2=O)C(=O)N1 (stereo partly drawn) [Example 29, 3-(1-oxo-5-((((R)-1-phenethylpiperidin-3-yl)amino)methyl)isoindolin-2-yl)piperidine-2,6-dione]
97%	1 nM	97%	7 nM	O=C1CCC(N2Cc3cc(CN[C@@H]4CCCN(Cc5ccccc5Cl)C4)ccc3C2=O)C(=O)N1 (stereo partly drawn) [Example 26, 3-(5-((((R)-1-(2-chlorobenzyl)piperidin-3-yl)amino)methyl)-1-oxoisoindolin-2-yl)piperidine-2,6-dione]
92%	58 nM	96%	35 nM	C[C@@]1(NCc2ccc3c(c2)CN(C2CCC(=O)NC2=O)C3=O)CCCN(Cc2ccccc2)C1 (stereo partly drawn) [Example 156, 3-(5-((((R)-1-benzyl-3-methylpiperidin-3-yl)amino)methyl)-1-oxoisoindolin-2-yl)piperidine-2,6-dione]
55%	105 nM	72%	118 nM	O=C1CCC(N2Cc3cc(CN[C@H]4CCC[C@@H](Oc5ccccc5)C4)ccc3C2=O)C(=O)N1 (some centres unmarked) [Example 110]
31%	246 nM	92%	78 nM	O=C1CCC(N2Cc3cc(CN[C@@H]4CCCC[C@H]4OCc4ccccc4Cl)ccc3C2=O)C(=O)N1 (some centres unmarked) [Example 145]
61%	122 nM	87%	106 nM	C[C@]1(NCc2ccc3c(c2)CN(C2CCC(=O)NC2=O)C3=O)CCCN(Cc2ccccc2)C1 (stereo partly drawn) [Example 155, 3-(5-((((S)-1-benzyl-3-methylpiperidin-3-yl)amino)methyl)-1-oxoisoindolin-2-yl)piperidine-2,6-dione]
61%	85 nM	56%	206 nM	O=C1CCC(N2Cc3cc(CN[C@H]4CCC[C@@H](OCc5ccccc5)C4)ccc3C2=O)C(=O)N1 (some centres unmarked) [Example 111]
48%	54 nM	85%	71 nM	O=C1CCC(N2Cc3cc(CN[C@H]4CC[C@H](c5ccccc5)CC4)ccc3C2=O)C(=O)N1 (stereo partly drawn) [Example 32, 3-(1-oxo-5-((((1,4-trans)-4-phenylcyclohexyl)amino)methyl)isoindolin-2-yl)piperidine-2,6-dione]
95%	124 nM	86%	427 nM	O=C1CCC(N2Cc3cc(CN[C@@H]4CCCN(Cc5ccncc5)C4)ccc3C2=O)C(=O)N1 (stereo partly drawn) [Example 125, 3-(1-oxo-5-((((R)-1-(pyridin-4-ylmethyl)piperidin-3-yl)amino)methyl)isoindolin-2-yl)piperidine-2,6-dione]
78%	25 nM	36%	110 nM	O=C1CCC(N2Cc3cc(CNCC4CCCc5ccccc54)ccc3C2=O)C(=O)N1 (centres unmarked) [Example 22, 3-(1-oxo-5-((((1,2,3,4-tetrahydronaphthalen-1-yl)methyl)amino)methyl)isoindolin-2-yl)piperidine-2,6-dione]
87%	4 nM	97%	8 nM	O=C1CCC(N2Cc3cc(CN[C@@H]4CCC[C@H](Cc5ccccc5)C4)ccc3C2=O)C(=O)N1 (some centres unmarked) [Example 115]
